Entries after “also recorded” stand apart in the source; their conditions may differ. Where two headings read alike, the source gives them in different places.
B1: XuaH (Ruminiclostridium cellulolyticum H10) (protein)
chain: MAIFQANFFAKTMKRSICFNALIPNDKYQAPDQEIKDEPKGPMKSIYLLHGYSGNHTDWLTWTKIQELSLKYNIAVFMPSGENFFYVDDEEVGAYYGELIGNELVDYTRSTFHLSDKREDTFIGGLSMGGYGAIRNGLKYSERFGRIIALSSALITNQIAGITPDFKGPVADYPYYRRVFGDLDRLLGGDKDPEALIRSLKEKNADIPKIYMACGTEDFLINENRELHEFLVSEKVEHTYIEDSGVHDWKFWNEYIDKGLAWATE
B2: XuaE (Ruminiclostridium cellulolyticum H10) (protein)
chain: MKIQNPIIWADMPDPDIIRVGDIYYMVSTTMFVMPGAPILKSKDLYHWELVSYVFNTIEDNDIYQLKNGKTAYGKGQWATSLRFFNGLYYACFVCHDMQKTYIYYTDDIEKSGWERYVINNVFHDMSFLFDNNRSYLIYGNGDIKIVELKDDLSGIKDGGVNQLLFSTPSENIMLRCEGCRAYKINGYYYLLFIEWPNDGNSRRRVVCYRSKDLLGEYDRKILLDDDMEYQNQGIAQGAIIDTPEGEWYSILFQDHGAVGRIPYLLPVSWEDDWPNLGVNEKVPESFEIPFEAYDTKPLIVSDSFNHNENKLDLRWQWNHNPEEDCWSFTEHPGYLRLRTQSLATDILTARNTLTQRTSGPQCAFSVELKTEGMKAGDYAGLVALQGNYGAIGIRADENNLKRIIVSKKGSDGRQIEEEYRLFADSRILIKIEFDFRNSSDIAKFYYSQDGIGWIKLGSDLHMTYTLDLFIGYRIGIFYYSQKAAGGFADFRNFSYESRQ

How the values were obtained:
XuaA [1] = biological target: T1, XuaA (Ruminiclostridium cellulolyticum, UniProt B8I0N3); assay: Thermal shift assay (TSA) of XuaA with carbohydrate ligands; type: binding; settings: for Binding to XuaA (in words): screened by TSA, then ITC
T1 sequence (B8I0N3 entry or part of it): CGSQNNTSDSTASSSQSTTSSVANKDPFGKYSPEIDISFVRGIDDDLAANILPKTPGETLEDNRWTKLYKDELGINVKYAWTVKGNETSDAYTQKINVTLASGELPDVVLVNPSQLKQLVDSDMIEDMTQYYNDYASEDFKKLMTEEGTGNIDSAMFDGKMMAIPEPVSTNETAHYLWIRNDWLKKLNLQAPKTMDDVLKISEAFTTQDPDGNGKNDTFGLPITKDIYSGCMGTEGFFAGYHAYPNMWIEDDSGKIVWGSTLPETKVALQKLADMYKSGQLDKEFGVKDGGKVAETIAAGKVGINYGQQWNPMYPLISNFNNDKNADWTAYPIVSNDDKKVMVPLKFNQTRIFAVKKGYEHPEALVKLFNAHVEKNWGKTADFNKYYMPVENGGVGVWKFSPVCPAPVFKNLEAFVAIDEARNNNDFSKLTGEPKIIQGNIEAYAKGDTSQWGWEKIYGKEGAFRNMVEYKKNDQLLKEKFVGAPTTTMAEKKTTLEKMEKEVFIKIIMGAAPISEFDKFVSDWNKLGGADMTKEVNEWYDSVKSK
Protocol: (§1) XOS and AXOS were purchased from Megazyme: A^3X (ref O-A^3X), A^2XX (ref O-A^2XX), A^2,3XX (ref O-A^2,3XX), XA^3XX (ref O-XA^3XX), XA^2,3XX (ref O-XA^2,3XX), XAXXMIX (ref O-XAXXMIX), X2 to X6 (ref O-XBI, O-XTR, O-XTE, O-XPE, O-XHE, respectively) (Fig. 3) (Megazyme). For TSA experiments, monosaccharides, XOS and AXOS were tested at a final concentration of 1 mM or 0.1 mM (for X4, X5, and X6). Experiments were performed with XuaA (8 µM) in 25 mM phosphate buffer pH 7 and SYPRO orange (1/500) (Sigma-Aldrich). Melting curves were monitored from 10 to 90 °C with 0.5 °C increment every 30 s, on CFX96 touch real-time PCR detection system (Bio-Rad, France) and analyzed using the Bio-Rad CFX Maestro 1.1 software.

XuaF = assay: Enzyme activity of XuaF on AXOS and XOS (HPAEC-PAD); type: biochemical, Ruminiclostridium cellulolyticum; settings: substrate 1 mM, 37 °C
Protocol: (§2) XuaD, E, F, G (0.01 to 1 µM) were tested with different AXOS and/or XOS at 1 mM with incubation times varying from 5 min to 24 h. Enzymes (10 nM) were incubated at 37 °C for 5 min, kinetic parameters of XuaD were determined with both A^2,3XX and A^2XX, with sugar concentration varying from 0.05 to 8 mM, and XuaE with A^2,3XX with sugar concentration varying from 0.05 to 1 mM (at least 9 concentration point). Substrates and released products were quantified by high performance anion exchange chromatography coupled with pulsed amperometric detection on an ICS-3000 using a PA1 column (Thermo Scientific). Sugars were eluted with the buffers 0.1 M NaOH and 0.5 M sodium acetate + 0.1 M NaOH as the eluants A and B, respectively, using the multistep procedure as follows: isochratic separation (5 min, 95% A + 5% B), separation gradient (8 min, 10–37% B), column wash (2 min, 99% B), and subsequent column equilibration (2.5 min, 95% A + 5% B).

XuaG = assay: Enzyme activity of XuaG on AXOS and XOS (HPAEC-PAD); type: biochemical, Ruminiclostridium cellulolyticum; settings: substrate 1 mM, 37 °C
Protocol: as §2

XuaD = XuaD (Ruminiclostridium cellulolyticum, UniProt B8I0N6); assay: Enzyme activity of XuaD on AXOS (HPAEC-PAD); type: biochemical; settings: for Products released by XuaD: HPAEC-PAD; for Specific activity (IU) of XuaD: substrate 1 mM, 37 °C
XuaD, sequence (B8I0N6 entry or part of it): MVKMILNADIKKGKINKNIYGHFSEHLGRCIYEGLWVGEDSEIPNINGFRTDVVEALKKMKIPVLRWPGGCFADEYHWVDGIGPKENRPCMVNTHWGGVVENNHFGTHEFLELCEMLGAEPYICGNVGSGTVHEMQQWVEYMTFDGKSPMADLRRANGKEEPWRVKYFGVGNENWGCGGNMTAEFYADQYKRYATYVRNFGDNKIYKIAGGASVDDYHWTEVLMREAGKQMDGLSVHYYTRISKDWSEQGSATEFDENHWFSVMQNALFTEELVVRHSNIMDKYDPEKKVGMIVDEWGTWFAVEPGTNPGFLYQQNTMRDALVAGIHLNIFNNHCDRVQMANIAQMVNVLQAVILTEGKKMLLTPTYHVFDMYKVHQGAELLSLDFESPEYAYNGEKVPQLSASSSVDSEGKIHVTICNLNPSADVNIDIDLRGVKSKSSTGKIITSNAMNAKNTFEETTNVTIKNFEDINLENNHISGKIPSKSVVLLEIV
Protocol: as §2

XuaA [2] = biological target: T1, XuaA; assay: Isothermal titration calorimetry (ITC) of XuaA with ligands; type: binding; settings: 25 °C, 25 mM phosphate buffer pH 7.0
Protocol: as §1
A MicroCal PEAQ-ITC (Malvern, Malvern, UK) was used to determine thermodynamic parameters of the binding at 25 °C in 25 mM phosphate buffer, pH 7.0. The ligands (50–2000 µM) were injected (one injection with 0.4 µL followed by 18 injections of 2 µL) in the cell containing XuaA (5–50 µM) in the same buffer. At least one duplicate was performed.

XuaE = XuaE (Ruminiclostridium cellulolyticum, UniProt B8I0N8); assay: Enzyme activity of XuaE on AXOS (HPAEC-PAD); type: biochemical; settings: for Products released by XuaE: HPAEC-PAD; for Specific activity (IU) of XuaE: substrate 1 mM, 37 °C
Protocol: as §2

[3] = substrate: CC(=O)Oc1cccc2ccccc12; assay: Esterase activity of XuaH; type: biochemical, Ruminiclostridium cellulolyticum; settings: other: 37 °C, pH 7, substrate 110 µM to 5.36 mM
Protocol: Esterase activity was tested using 1-Naphthyl acetate. Release of 1-Naphthol was monitored at 320 nm during 5 min at 37 °C in 25 mM phosphate buffer pH 7, with substrate final concentration ranging from 110 µM and 5.36 mM, and with XuaH (0.1 µM) or XuaJ (0.01 µM). Concentration of released 1-Naphthol during the first minute of the assay was determined based on 1-Naphthol standard curve.

[4] = substrate: OC[C@@H]1O[C@@H](O[C@@H]2[C@@H](O[C@@H]3O[C@@H](CO)[C@H](O)[C@H]3O)[C@H](O[C@@H]3CO[C@@H](O[C@@H]4COC(O)[C@H](O)[C@H]4O)[C@H](O)[C@H]3O)OC[C@H]2O)[C@H](O)[C@H]1O; assay: Enzyme activity of XuaE on AXOS (HPAEC-PAD); type: biochemical, Ruminiclostridium cellulolyticum; settings: other: 37 °C, substrate 0.05 to 1 mM
Protocol: as §2

[5] = XuaA 8 µM, ligand 1 mM or 0.1 mM (X4, X5, X6), 25 mM phosphate buffer pH 7, mean of at least 2 experiments
[6] = XuaE versus XuaD on the same substrate

Molecule	Specific activity (IU) of XuaF (XuaF)	Specific activity (IU) of XuaG (XuaG)	TSA ∆T (XuaA [1]; [5]) [°C]	Products released by XuaD (XuaD)	Specific activity (IU) of XuaD (XuaD)	further results
OC1OC[C@@H](O[C@@H]2OC[C@@H](O[C@@H]3OC[C@@H](O[C@@H]4OC[C@@H](O[C@@H]5OC[C@@H](O)[C@H](O)[C@H]5O)[C@H](O)[C@H]4O)[C@H](O)[C@H]3O)[C@H](O)[C@H]2O)[C@H](O)[C@H]1O (stereo partly shown) [X5]	IU: 25.3 ± 0.7 IU/µmol of enzyme	IU: 6.2 ± 0.5 IU/µmol of enzyme	–	–	–	ΔTm at 100 µM (XuaA [1]; pH 7, ligand 100 µM, Additional file 1, read-out: TSA ∆T): 0 °C
OC[C@H]1OC(O)[C@H](O)[C@@H](O)[C@@H]1O (stereo partly shown) [G, glucose]	–	–	–	–	–	ΔTm at 1000 µM (XuaA [1]; pH 7, read-out: TSA ∆T): 0 °C; Binding to XuaA (in words) (XuaA [1]): does not bind
OC[C@@H]1O[C@@H](O[C@H]2[C@H](O[C@@H]3CO[C@@H](O[C@@H]4COC(O)[C@H](O)[C@H]4O)[C@H](O)[C@H]3O)OC[C@@H](O)[C@@H]2O)[C@H](O)[C@H]1O (stereo partly shown) [A^2XX]	IU: 202.3 ± 18.7 IU/µmol of enzyme	blocks the activity	6.5	Products: Ara, X3	IU: 1263.0 ± 46.1 IU/µmol of enzyme	–
OC[C@@H]1O[C@@H](O[C@@H]2[C@@H](O[C@@H]3O[C@@H](CO)[C@H](O)[C@H]3O)[C@H](O[C@@H]3CO[C@@H](O[C@@H]4COC(O)[C@H](O)[C@H]4O)[C@H](O)[C@H]3O)OC[C@H]2O[C@@H]2OC[C@@H](O)[C@H](O)[C@H]2O)[C@H](O)[C@H]1O (stereo partly shown) [XA^2,3XX]	IU: 29.7 ± 2.8 IU/µmol of enzyme	IU: 20.3 ± 0.2 IU/µmol of enzyme	14	Products: Ara, X4	IU: 1.5 ± 0.03 IU/µmol of enzyme	ITC -T∆S (XuaA [2]): 4.8 ± 0.5 kcal/mol; ITC N (sites) (XuaA [2]): 1.05 ± 5.67e-2 sites; Kd (XuaA [2]): 15.9 ± 0.1 nM; Products released by XuaE (XuaE): Products: Ara, XA^2XX, XA^3XX; Specific activity (IU) of XuaE (XuaE): IU: 1927.2 ± 100.4 IU/µmol of enzyme
OC1OC[C@@H](O[C@@H]2OC[C@@H](O)[C@H](O)[C@H]2O)[C@H](O)[C@H]1O (stereo partly shown) [X2, xylobiose]	not active	–	0	–	–	–
OC[C@@H]1O[C@@H](O[C@@H]2[C@@H](O)[C@H](O[C@@H]3CO[C@@H](O[C@@H]4COC(O)[C@H](O)[C@H]4O)[C@H](O)[C@H]3O)OC[C@H]2O[C@@H]2OC[C@@H](O)[C@H](O)[C@H]2O)[C@H](O)[C@H]1O (stereo partly shown) [XA^3XX]	IU: 166.7 ± 12.8 IU/µmol of enzyme	IU: 21.2 ± 0.2 IU/µmol of enzyme	11.0	Products: Ara, X4	IU: 1218.9 ± 38.5 IU/µmol of enzyme	ITC -T∆S (XuaA [2]): 11.6 ± 1.2 kcal/mol; ITC N (sites) (XuaA [2]): 0.652 ± 2.83e-3 sites; Kd (XuaA [2]): 40.4 ± 9.3 nM; Products released by XuaE (XuaE): Products: Ara, X4
O=C[C@H](O)[C@@H](O)[C@H](O)CO [X, xylose]	–	–	–	–	–	ΔTm at 1000 µM (XuaA [1]; pH 7, ligand 1 mM, Additional file 1, read-out: TSA ∆T): 0 °C; Binding to XuaA (in words) (XuaA [1]): does not bind; also recorded: failed to bind
OC1OC[C@@H](O[C@@H]2OC[C@@H](O[C@@H]3OC[C@@H](O[C@@H]4OC[C@@H](O)[C@H](O)[C@H]4O)[C@H](O)[C@H]3O)[C@H](O)[C@H]2O)[C@H](O)[C@H]1O (stereo partly shown) [X4]	IU: 87.2 ± 7.6 IU/µmol of enzyme	IU: 23.3 ± 0.5 IU/µmol of enzyme	0	–	–	–
OC[C@@H]1O[C@@H](O[C@@H]2[C@@H](O[C@@H]3O[C@@H](CO)[C@H](O)[C@H]3O)[C@H](O[C@@H]3CO[C@@H](O[C@@H]4COC(O)[C@H](O)[C@H]4O)[C@H](O)[C@H]3O)OC[C@H]2O)[C@H](O)[C@H]1O (stereo partly shown) [A^2,3XX]	–	blocks the activity	13.5	Products: Ara, X3	IU: 1256.3 ± 50.2 IU/µmol of enzyme	ITC -T∆S (XuaA [2]): 15.1 ± 2.8 kcal/mol; ITC N (sites) (XuaA [2]): 0.796 ± 2.37e-2 sites; Kd (XuaA [2]): 12 ± 4.6 nM; Products released by XuaE (XuaE): Products: Ara, A^2XX, A^3XX?; Km of XuaE relative to XuaD (fold lower) (XuaE; [6]): 18 fold; kcat of XuaE relative to XuaD (XuaE; [6]): twofold lower; Specific activity (IU) of XuaE (XuaE): IU: 1938.0 ± 109.6 IU/µmol of enzyme
OC1OC[C@@H](O[C@@H]2OC[C@@H](O[C@@H]3OC[C@@H](O)[C@H](O)[C@H]3O)[C@H](O)[C@H]2O)[C@H](O)[C@H]1O (stereo partly shown) [X3, xylotriose]	IU: 158.7 ± 21.1 IU/µmol of enzyme	IU: 24.5 ± 1.6 IU/µmol of enzyme	0	–	–	–
OC1OC[C@@H](O[C@@H]2OC[C@@H](O[C@@H]3OC[C@@H](O[C@@H]4OC[C@@H](O[C@@H]5OC[C@@H](O[C@@H]6OC[C@@H](O)[C@H](O)[C@H]6O)[C@H](O)[C@H]5O)[C@H](O)[C@H]4O)[C@H](O)[C@H]3O)[C@H](O)[C@H]2O)[C@H](O)[C@H]1O (stereo partly shown) [X6, Xylohexaose]	–	–	0	–	–	TSA ∆T (XuaA [1]; ligand 100 µM, Additional file 1): 0 °C
B1	–	–	–	–	–	Km [3]: Km: 3.5 ± 1.1 mM; kcat [3]: kcat: 5435.7 ± 846.4 min^−1; kcat/Km [3]: kcat/Km: 1628.1 ± 295.7 min^−1 mM^−1
B2	–	–	–	–	–	Km [4]: Km 0.1 ± 0.003 mM; kcat [4]: kcat 2253.5 ± 142.1 min^−1; kcat/Km [4]: kcat/Km 23137.8 ± 1355.0 min^−1 mM^−1
